Measured values reported in ChEMBL document CHEMBL1130575, “ATP analogs with non-transferable groups in the position as inhibitors of glycerol kinase” (Bioorg Med Chem Lett, 1997).

What was measured:
[1] = pKa value was evaluated; format: physicochemical
Glycerol kinase = molecular target: T1, Glycerol kinase (Homo sapiens, UniProt P32189); experiment: Tested for its binding affinity against glycerol kinase (ATP competitive inhibition)
T1 sequence (P32189 whole entry): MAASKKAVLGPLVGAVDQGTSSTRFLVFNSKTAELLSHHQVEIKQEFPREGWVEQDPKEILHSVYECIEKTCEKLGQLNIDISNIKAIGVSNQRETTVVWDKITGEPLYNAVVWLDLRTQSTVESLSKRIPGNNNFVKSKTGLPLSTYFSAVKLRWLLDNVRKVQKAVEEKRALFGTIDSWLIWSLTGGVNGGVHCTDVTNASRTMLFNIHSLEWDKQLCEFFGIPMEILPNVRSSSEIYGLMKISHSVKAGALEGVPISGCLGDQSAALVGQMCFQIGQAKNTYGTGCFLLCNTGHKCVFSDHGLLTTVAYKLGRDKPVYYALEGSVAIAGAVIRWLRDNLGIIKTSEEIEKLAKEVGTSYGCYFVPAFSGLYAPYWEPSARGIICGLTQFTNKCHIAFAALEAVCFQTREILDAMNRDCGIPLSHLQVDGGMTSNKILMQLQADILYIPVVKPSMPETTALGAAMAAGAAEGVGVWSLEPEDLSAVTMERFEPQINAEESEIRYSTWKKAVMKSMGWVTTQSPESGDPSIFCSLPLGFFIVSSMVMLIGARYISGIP

Compound	pKa [1]	Ki (Glycerol kinase)
Nc1ncnc2c1ncn2[C@@H]1O[C@H](COP(=O)(O)OP(=O)(O)C(F)(F)P(=O)(O)O)[C@@H](O)[C@H]1O	6.7	80 µM
Nc1ncnc2c1ncn2[C@@H]1O[C@H](COP(=O)(O)OP(=O)(O)NP(=O)(O)O)[C@@H](O)[C@H]1O		900 µM
Nc1ncnc2c1ncn2C1O[C@H](COP(=O)(O)OP(=O)(O)C[As](=O)(O)O)[C@@H](O)[C@H]1O (some centres undefined)	9	2900 µM
Nc1ncnc2c1ncn2[C@@H]1O[C@H](COP(=O)(O)OP(=O)(O)OP(=O)(O)O)[C@@H](O)[C@H]1O [ADENOSINE TRIPHOSPHATE]	7.1	200 µM
Nc1ncnc2c1ncn2[C@@H]1O[C@H](COP(=O)(O)OP(=O)(O)CP(=O)(O)O)[C@@H](O)[C@H]1O [PHOSPHOMETHYLPHOSPHONIC ACID ADENYLATE ESTER]	8.4	300 µM
